{
  "source": "patent US11402382B2",
  "about": "“Diagnostic and therapeutic methods for cancer” (Genentech, Inc., priority 2017, dated 2022)",
  "key": {"[1]": {"tested_on": "vascular signature, Th1 chemokine, CD8 T-effector and NK cell genes in mRCC tumor biopsies", "test": "Phase Ib tumor biopsy gene expression analysis (Fluidigm PCR panel, NanoString panel)", "format": "in vivo, human", "description": "RNA isolation was performed as described by Schleifman et al. (PLoS One 8:e74231, 2014). Briefly, tumor FFPE sections were macro dissected to enrich for neoplastic tissue, and tissue was lysed using tumor lysis buffer and Proteinase K to allow for complete digestion and release of nucleic acids. RNA was isolated using the High Pure FFPE RNA Micro Kit (Roche Applied Sciences, Indianapolis, Ind.) according to the manufacturer's protocol. DNA was isolated using the QIAAMP® DNA FFPE Tissue Kit (Qiagen, Hilden, Germany) according to the manufacturer's protocol. RNA and DNA were stored at 280 uC until the analyses were performed.\nGene-expression analysis was performed using the BioMark HD™ real-time PCR Platform (Fluidigm) as described by Schleifman et al. (PLoS One 8:e74231, 2014). All TAQMAN® assays in the expression panel used FAM™ dye-labeled TAQMAN® minor groove binder (MGB) probes and ordered through Life Technologies either made-to-order or custom-designed, including four reference genes: SP2, GUSB, TMEM55B and VPS33B. A geometric median of the Ct values for the four reference genes (SP2, GUSB, TMEM55B and VPS33B) was calculated for each sample, and expression levels were determined using the delta Ct (ΔCt) method as follows: Ct (target Gene)2GeoMedian Ct (reference genes). Median mRNA expression levels (as measured by immunochip (iChip)) across patients on study were used as cutoffs to derive high- versus low-expression categorization. P values were determined by t test.\nNanoString gene expression data were processed using the R/Bioconductor package “NanoStringQCPro.” Raw counts were adjusted by positive control counts before probe- and lane-specific background was calculated based on both negative controls and blank measurements. After background correction, counts were log2 transformed and normalized by housekeeping gene expression (TMEM55B, VPS33B, TBP, and TUBB).\nIn addition to safety, tolerability, and clinical activity, one key objective of the phase Ib study described above was to evaluate the mechanism of combination activity. The trial design included a run-in period with bevacizumab to specifically interrogate the effects of bevacizumab on the local tumor immune microenvironment, followed by combination therapy with immune checkpoint blockade using atezolizumab. Tumor biopsies and blood were collected prior to treatment, 15-18 days following bevacizumab, and 4-6 weeks after the atezolizumab and bevacizumab combination treatment had been initiated.\nTo identify tumor markers associated with bevacizumab monotherapy or combination therapy, gene expression analysis was performed using both a 90 gene PCR-based Fluidigm panel and an 800 gene custom NanoString panel. […]"}, "[2]": {"tested_on": "immune and vasculature markers in mRCC tumor sections", "test": "Phase Ib tumor immunohistochemistry (CD34/αSMA, CD8, Ki67/CD8, MHC-I, PD-L1)", "format": "in vivo, human", "description": "Formalin-fixed, paraffin-embedded (FFPE) tissue sections of 4 μm thickness were stained for PD-L1 with an anti-human PD-L1 rabbit monoclonal antibody (clone SP142; Ventana, Tucson, Ariz.) on an automated staining platform (BenchMark; Ventana) using a concentration of […], with signal visualization by diaminobenzidine; sections were counter-stained with haematoxylin. PD-L1 expression was evaluated on tumor cells and tumor-infiltrating immune cells. […] For tumor-infiltrating immune cells, the percentage of PD-L1-positive tumor-infiltrating immune cells occupying the tumor was determined. […] Specimens were scored as IHC 0, 1, 2, or 3 if <1%, ≥1% but <5%, ≥5% but <10%, or ≥10% of cells per area were PD-L1 positive, respectively. […]\nAll MHC-I IHC steps were carried out on the Ventana Discovery XT automated platform (Ventana Medical Systems; Tucson, Ariz.). […] Bound primary antibody was detected by the OMNIMAP™ anti-rabbit HRP detection kit, followed by DAB (Ventana Medical Systems; Tucson, Ariz.). […] MHC-I staining in tumor cells was scored using an H-score system. […] Relative to the overall tumor area, the percentage of cells at different staining intensities was determined by visual assessment. […] Cases were scored by two independent pathologists. […]"}},
  "data": [
    {"substance": "bevacizumab: recombinant humanized anti-VEGF monoclonal antibody, also known as rhuMAb VEGF or AVASTIN®", "values": [
      {"measurement": "expression of genes associated with the neo-vasculature (VEGF downstream signaling)", "setting": "[1]; both on-treatment time points vs pre-treatment, all patients", "result": "significantly decreased"},
      {"measurement": "VEGF transcript expression in tumors", "setting": "[1]; normalized to housekeeping gene expression, FIG. 11", "result": "upregulation"},
      {"measurement": "consistent changes in FasL gene expression", "setting": "[1]; on-treatment tumor", "result": "not observed"},
      {"measurement": "patients showing a significant increase in gene signatures related to Th1 signaling", "setting": "[1]; six patients with paired biopsies", "result": "four of the six"},
      {"measurement": "effect on vessels, dual staining of CD34 with αSMA", "setting": "[2]; immature or unstable vessels (CD34+/αSMA−)", "result": "primarily affected"},
      {"measurement": "MHC-I staining", "setting": "[2]; on-treatment tumor vs pre-treatment", "result": "increase"}
    ]}
  ]
}
